Measured values: US10111833B2, “Sildenafil sublingual spray formulations” (Insys Development Company, Inc., priority 2015, dated 2018)

Assays:
[1] = Freeze/thaw stability testing; format: physicochemical; details: Drug Substance
Excerpt: The results are below in Tables 13-18.

[2] = Impurity formation / standard stability testing (clarity, color, pH, assay, impurities); format: physicochemical; details: Drug Substance
Excerpt: In order to further determine the stability of Formulations 1, 3A, 3B, 5A, 5B, 5C, 5D and 5E, the formulations were subjected to standard stability testing to determine impurity levels. The results are below in Tables 7-11.

**Q.** With CCCc1nn(C)c2c(=O)[nH]c(-c3cc(S(=O)(=O)N4CCN(C)CC4)ccc3OCC)nc12 [Drug Substance, Sildenafil base] as the compound, how does the Color [1] read?
**A.** colorless

**Q.** And the Physical appearance [1]?
**A.** clear

**Q.** What about the “Assay (% of initial Conc)” value [2] of the same compound?
**A.** 100.70%

**Q.** And the “Impurity A” value [2]?
**A.** BQL (BQL = Below Quantification Limit (Limit of Quantification = 0.05%))

**Q.** And the “Impurity B” value [2]?
**A.** ND (ND = Not Detected (Limit of Detection = 0.01%))

**Q.** And the “Impurity C” value [2]?
**A.** BQL (BQL = Below Quantification Limit (Limit of Quantification = 0.05%))

**Q.** What about the “Impurity D” value [2] of the same compound?
**A.** BQL (BQL = Below Quantification Limit (Limit of Quantification = 0.05%))

**Q.** What about the “Total Impurities” value [2] of the same compound?
**A.** 0.00%

**Q.** And the “Unknown Impurity RRT 0.24” value [2]?
**A.** ND (ND = Not Detected (Limit of Detection = 0.01%))

**Q.** And the “Unknown Impurity RRT 0.61” value [2]?
**A.** ND (ND = Not Detected (Limit of Detection = 0.01%))

**Q.** And the Physical appearance ([2]; first line of cell (clarity))?
**A.** clear,

**Q.** What about the Physical appearance ([2]; second line of cell (color)) of the same compound?
**A.** colorless
